One compound from patent publication US20260306459A1, “INHIBITORS OF NSUN1- AND NSUN2-MEDIATED ACTIVE STRUCTURES” (THE UNIVERSITY OF CHICAGO, priority 2023, published 2026) can be followed below.

“Also recorded” adds a separate entry of the source.

The test system of one assay is SC cells. Put plainly: MTT growth inhibition in venetoclax-resistant monocytic leukemia cell line SC. Format: cell-based, human. The source says: FIGS. 8A-8B display a schematic of an 5-ethynyl uridine click chemistry (EC)-coupled flow cytometry (EC-FCM) assay (FIG. 8A), while FIG. 8B depicts the results of an EC-FCM assay showing distinct drug-specific signatures/patterns of nascent RNA synthesis inhibition in the venetoclax sensitive leukemia cell line (K1). The MTT assay measures cell viability and proliferation as well as cytotoxicity of compounds by assessing cellular metabolic activity. The associated measurement can be described as cell viability, cell killing, and/or growth inhibition.
(§1) FIGS. 11A-11D display scatter plot representations of screening results for AI-designed NSUN1-targeting compound libraries in a venetcoclax-resistant human myeloid leukemia cell line (SC), lung cancer cell line (H82), and venetoclax resistant human […], and a schematic representation of categorization of the results. A human myeloid leukemia cell Line (SC), a lung cancer cell line (H82 or K562) were both incubated at drug concentration 10 μM/μL overnight. MTT assays were performed after 24 hours, and changes were calculated as the percentage of mean absorbance (n=3) versus mean absorbance of drug-free control (n=3). Negative outliers indicated in red ovals. FIG. 11A depicts the results of an NSUN1-targeting drug library, 74 drugs, comparing growth/inhibition in H-82 (Y axis) and SC (X axis) cell lines. FIG. 11B depicts the results of an NSUN2-targeting drug library, 102 drugs, comparing growth/inhibition in H-82 (Y axis) and SC (X axis) cell lines. FIG. 11C depicts the results of an NSUN1-targeting drug library, 74 drugs, comparing growth/inhibition in K562 (Y axis) and SC (X axis) cell lines. FIG. 11D is a schematic representation showing categorization of the results from screens performed as described in FIG. 11, and validation experiments as described in FIG. 12.
(§2) FIGS. 12A-12J display bar graphs displaying the results of validation experiments for small molecule inhibitors of NSUN1/2-ACS interactions as identified herein. Drug validation of select SC, H82, and/or K562 inhibiting compounds in mouse acute myeloid leukemia cell Line (C1498), SC cells, H82 cells, and/or K562 cells. NSUN1-17 and/or venetoclax acted as controls. Inhibition of cell vitality was identified as dose-dependent for certain small molecules, not merely cytotoxic. In brief, stock with concentration 0.4×10^6 test (e.g., SC, H82, K562, or C1498, as labelled) cells/mL, and 10 μM/μL drug was serially diluted into drug-free cell stock to reach concentrations of 1 μM/μL and […] and split into 100 μL volumes in a 96-well plate. MTT assays performed after 24 hour incubation. Percentages calculated as a difference in mean absorbance of each drug triplicate and mean absorbance in drug-free cell triplicate. Red bars represent standard errors. The concentration of drug represented by each column is from left to right as written in the figure keys. FIGS. 12A-12E provide results from independent repeats for different groupings of small molecules tested against C1498 cells. FIGS. 12F-12G provide results from independent repeats for different groupings of small molecules tested against H82 cells. FIGS. […] provide results from independent repeats for different groupings of small molecules tested against SC cells. FIG. 12J provide results from an assay against K562 cells.
The inventors then designed a protocol for functional screening of NSUN1/2-targeting supercomputing/AI-derived compound libraries as schematically presented in FIGS. 5A-5G. Briefly, the library compounds were obtained from various chemical companies/vendors and dissolved in DMSO, and then applied to 96-well plates that contained leukemia and/or other cancer cells that were resistant to venetoclax. […]

For assay [1], the system named is leukemia and lung cancer cell lines. Put plainly: Functional (MTT) screening of NSUN1/2-targeting libraries in leukemia and lung cancer cell lines. In kind it is cell-based, human. Particulars: multiple leukemia lines and/or lung cancer cell lines. The method, then: as §1, §2
The inventors then designed a protocol for functional screening of NSUN1/2-targeting supercomputing/AI-derived compound libraries as schematically presented in FIGS. 5A-5G. Briefly, the library compounds were obtained from various chemical companies/vendors and dissolved in DMSO, and then applied to 96-well plates that contained leukemia and/or other cancer cells that were resistant to venetoclax. Both the routine colorimetric assay (MTT assay) and the newly developed NSUN1/2-targeting fluorescence quenching and release (FQR) assay were performed to select bioactive compounds for further quantitative study to confirm that they targetNSUN1/2 and their associated ACS. As described below, the compound libraries screened through cancer cell proliferation and/or NSUN1/2 localization to the ACS successfully identified numerous promising compounds that can inhibit the leukemia cell growth and appear to target the NSUN1-mediated ACS (see Table 2). This success has proven the feasibility and efficacy of the described supercomputing/AI design and functional screening of the NSUN1/2-targeting drug libraries. In some aspects, screening is conducted using drug-resistant cell lines. […]

For assay [2], the target named is T1, NSUN1-eRNAPII interaction (Homo sapiens, UniProt P46087).
T1 construct: RNAPII
T1 sequence (P46087 whole entry): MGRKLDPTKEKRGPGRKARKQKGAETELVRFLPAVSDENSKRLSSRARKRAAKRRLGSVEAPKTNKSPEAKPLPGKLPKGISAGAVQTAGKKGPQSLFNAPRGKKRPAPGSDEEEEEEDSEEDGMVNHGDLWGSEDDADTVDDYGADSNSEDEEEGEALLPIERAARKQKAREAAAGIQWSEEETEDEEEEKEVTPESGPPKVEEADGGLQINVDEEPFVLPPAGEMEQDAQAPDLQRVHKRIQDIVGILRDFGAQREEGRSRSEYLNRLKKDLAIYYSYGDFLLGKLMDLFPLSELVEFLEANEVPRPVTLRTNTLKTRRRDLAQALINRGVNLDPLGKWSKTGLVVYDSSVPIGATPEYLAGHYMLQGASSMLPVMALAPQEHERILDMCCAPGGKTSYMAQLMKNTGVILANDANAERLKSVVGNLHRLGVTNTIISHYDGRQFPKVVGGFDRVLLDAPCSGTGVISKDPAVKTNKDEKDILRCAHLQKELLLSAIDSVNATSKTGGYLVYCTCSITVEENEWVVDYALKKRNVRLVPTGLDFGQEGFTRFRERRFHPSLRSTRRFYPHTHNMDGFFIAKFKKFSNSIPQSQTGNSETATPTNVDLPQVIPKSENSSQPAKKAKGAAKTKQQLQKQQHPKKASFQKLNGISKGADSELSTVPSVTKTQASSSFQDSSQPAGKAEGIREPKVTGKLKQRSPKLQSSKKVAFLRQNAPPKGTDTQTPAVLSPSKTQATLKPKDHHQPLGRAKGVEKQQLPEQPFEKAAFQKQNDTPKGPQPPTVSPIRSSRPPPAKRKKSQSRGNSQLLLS
Put plainly: PL-RCA-FCM, NSUN1-eRNAPII interaction. In kind it is cell-based. The source says:
(§3) FIGS. 5A-5G display a pipeline of computational design and functional screening of small-molecule compound libraries as well as exemplary characterization and validation of identified positive hit compounds and their targets. FIGS. 5A-5D display an exemplary experimental procedure, beginning with characterization of NSUN1 and/or NSUN2 putative binding modules for interaction with ACS components (FIGS. 5A-5B), a graphic displaying the design of a small molecule library and testing of the putative small molecule NSUN1/2-ACS inhibitors in cell lines (FIG. 5C), characterization of the NSUN1/2-ACS inhibitors interactions with the ACS machinery (FIG. 5D).
(§4) Black=negative control, blue=positive control, no drug=red.
(§5) The PL-RCA-CM/imaging technique utilized in the inventors previous work (Cheng, J. X. et al., Nature Communications 2018) was suitable to visualize and semi-quantify the NSUN1/2-mediated ACS in cells. […] To overcome this bottleneck, as described herein, the inventors developed NSUN1/2-targeting fluorescence quenching and release (FQR) plate assay (FIG. 6A) and PL-RCA flow cytometry (PL-RCA-FCM) technology (FIG. 6B) for screening of NSUN1/2-targeting drug libraries and quantitatively measuring NSUN1/2-mediated ACS with and without drugs in a lineage-specific and high-throughput manner. […]

For the next assay, the target named is NSUN1-c-MYC interaction (Homo sapiens, UniProt P46087). Put plainly: PL-RCA-FCM, NSUN1-c-MYC interaction. Format: cell-based.
NSUN1-c-MYC interaction, sequence (P46087 whole entry): as above
Excerpt: as §3, §4, §5

Assay [3] concerns the target NSUN1-RNA:m5C interaction (Homo sapiens, UniProt P46087). Put plainly: PL-RCA-FCM, NSUN1-RNA:m5C interaction. Format: cell-based.
Excerpt: as §3
The PL-RCA-CM/imaging technique utilized in the inventors previous work (Cheng, J. X. et al., Nature Communications 2018) was suitable to visualize and semi-quantify the NSUN1/2-mediated ACS in cells. However, the previous technique had the disadvantage of having a low sensitivity and low throughput. To overcome this bottleneck, as described herein, the inventors developed NSUN1/2-targeting fluorescence quenching and release (FQR) plate assay (FIG. 6A) and PL-RCA flow cytometry (PL-RCA-FCM) technology (FIG. 6B) for screening of NSUN1/2-targeting drug libraries and quantitatively measuring NSUN1/2-mediated ACS with and without drugs in a lineage-specific and high-throughput manner. […]

In assay [4] the target is T2, NSUN2-RNA polymerase II (RNAPII) interaction (Homo sapiens, UniProt Q08J23).
T2 construct: RNAPII CTD2-S2P
T2 sequence (Q08J23 whole entry): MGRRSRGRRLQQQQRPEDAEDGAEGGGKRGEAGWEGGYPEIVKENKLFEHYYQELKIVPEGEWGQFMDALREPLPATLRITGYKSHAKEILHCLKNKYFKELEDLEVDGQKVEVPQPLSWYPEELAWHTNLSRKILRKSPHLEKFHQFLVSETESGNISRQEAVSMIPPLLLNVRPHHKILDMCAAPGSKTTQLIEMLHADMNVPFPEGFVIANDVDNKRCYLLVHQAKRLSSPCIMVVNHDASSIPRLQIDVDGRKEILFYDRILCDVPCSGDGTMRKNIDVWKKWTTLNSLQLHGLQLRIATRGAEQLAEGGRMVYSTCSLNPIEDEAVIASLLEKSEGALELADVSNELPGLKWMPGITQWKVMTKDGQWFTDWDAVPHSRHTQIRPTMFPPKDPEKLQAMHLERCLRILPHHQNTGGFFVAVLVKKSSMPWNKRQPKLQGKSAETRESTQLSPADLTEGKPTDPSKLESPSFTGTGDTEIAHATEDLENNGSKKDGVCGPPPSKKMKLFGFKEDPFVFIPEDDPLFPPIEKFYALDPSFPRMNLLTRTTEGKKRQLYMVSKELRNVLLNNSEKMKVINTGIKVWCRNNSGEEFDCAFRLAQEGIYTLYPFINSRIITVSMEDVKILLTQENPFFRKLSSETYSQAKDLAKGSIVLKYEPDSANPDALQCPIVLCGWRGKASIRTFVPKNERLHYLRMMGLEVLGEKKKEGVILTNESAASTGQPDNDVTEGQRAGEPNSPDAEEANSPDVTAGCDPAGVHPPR
As to the kind of experiment: PL-RCA-FCM, NSUN2-RNAPII interaction. In kind it is cell-based.
Excerpt: as §4
The PL-RCA-CM/imaging technique utilized in the inventors previous work (Cheng, J. X. et al., Nature Communications 2018) was suitable to visualize and semi-quantify the NSUN1/2-mediated ACS in cells. However, the previous technique had the disadvantage of having a low sensitivity and low throughput. To overcome this bottleneck, as described herein, the inventors developed NSUN1/2-targeting fluorescence quenching and release (FQR) plate assay (FIG. 6A) and PL-RCA flow cytometry (PL-RCA-FCM) technology (FIG. 6B) for screening of NSUN1/2-targeting drug libraries and quantitatively measuring NSUN1/2-mediated ACS with and without drugs in a lineage-specific and high-throughput manner. The new PL-RCA-FCM detected very strong PL-RCA signals (>2 logs) of the NSUN2-mediated interactions with m5C, RNAPII CTD2-S2P and BRD4, particularly in the venetoclax-resistant leukemia cells (SC) (FIG. 6C), in comparison to the venetoclax-sensitive K1 cells (FIG. 6D).

For assay [5], the system named is NSUN1 and NSUN2 binding modules. Put plainly: Synergy experiments. Particulars: besides the NSUN1 A-460 binding module. The source says: Without being limited by theory, this may potentially be why NSUN1-17 is effective in multiple different cancer types.

NSUN1-RNA:m5C interaction, sequence (P46087 whole entry): as the sequence (P46087 whole entry) above

For the compound `Cc1[nH]nc2ccc(-c3cncc(OC[C@@H](N)Cc4c[nH]c5ccccc45)c3)cc12` [NSUN1-17], in the assay on SC cells, the “Inhibition of growth of venetoclax-resistant leukemia (SC) cells” value is on record as “inhibition of the growth of venetoclax-resistant SC cells; also recorded: inhibit drug (venetoclax)-resistant leukemia cells”. For the same compound, the “Efficacy of tumor cell growth inhibition” value in assay [1] is listed as “high-efficacy of tumor cell growth inhibition”. The “Effect on NSUN1 interaction with eRNAPII/RNAPII” value in assay [2] was “inhibited the interaction; also recorded: can only disrupt the NSUN1-mediated interaction; also recorded: effectively disrupted”. The “Effect on NSUN1 interaction with c-MYC” value at NSUN1-c-MYC interaction is “inhibited the interaction; also recorded: can only disrupt the NSUN1-mediated interaction; also recorded: effectively disrupted”. In addition, the “Effect on NSUN1 interaction with RNA:m5C” value in assay [3] is “but not the interaction between NSUN1 and RNA m5C; also recorded: little effects”. Besides, in assay [4], the “Effect on NSUN2-mediated interaction with RNA polymerase II” value is listed as “not the NSUN-2 mediated interaction”. The “Binding modules targeted, from synergy experiments” value in assay [5] is “likely to target multiple binding modules in both NSUN1 and NSUN2”.
